Results published in publication PMC8843100, “Development of newly synthesised quinazolinone-based CDK2 inhibitors with potent efficacy against melanoma” (Journal of Enzyme Inhibition and Medicinal Chemistry, 2022).

Legend:
[1] = tested on: glioblastoma SNB-75 cells; assay: Apoptosis determination, Annexin V-FITC/PI; type: cell-based, human; settings: SNB-75, 24 h at IC50 concentration
Description: (§1) The apoptotic activity of quinazolinone 5c in melanoma MDA-MB-435 and glioblastoma SNB-75 cell lines was further studied using Annexin V-FITC assay. […]
(§2) 4. Apoptosis determination
(§3) Annexin V fluorescein isothiocyanate (FITC)/PI apoptosis detection kit (BD Biosciences) was used according to the manufacturer’s instructions to measure the apoptotic activity of compound 5c. Melanoma MDA -MB-435 and glioblastoma SNB -75 cells were cultured to a monolayer then treated with the quinazolinone 5c at its IC50 concentration. The cells then were collected by trypsinisation and 0.5×10^6 cells were washed twice with PBS and stained with 5 µL Annexin V-FITC and 5 µL PI in 1Xbinding buffe r for 15 min. at room temperature in the dark.
(§4) Analyses were performed using FACS Calibur flow cytometer (BD Biosciences, San Jose, CA).

[2] = tested on: melanoma MDA-MB-435 cells; assay: Apoptosis determination, Annexin V-FITC/PI; type: cell-based, human; settings: MDA-MB-435, 24 h at IC50 concentration
Description: as §1, §2, §3, §4

In the case of `O=c1c2ccccc2nc(COc2ccccc2)n1NS(=O)(=O)c1ccc(Cl)cc1` [Compound 5c, 4-chloro-N-(4-oxo-2-(phenoxymethyl)quinazolin-3(4H)-yl)benzenesulfonamide], the “% Necrosis” value [1] is reported as 8.61%, the “%Apoptosis Early” value [1] is reported as 2.65% and the “%Apoptosis Late” value [1] is reported as 32.96%. The “%Apoptosis Total” value [1] was 44.22%, the “% Necrosis” value [2] was 13.47% and the “%Apoptosis Early” value [2] was 4.53%. For the same compound, the “%Apoptosis Late” value [2] was 10.65% and the “%Apoptosis Total” value [2] was 28.65%.
